In patent US7504362B2, “Pesticidal compositions” (Merial Limited, priority 2002, dated 2009):

System: Ctenocephalides felis, Diabrotica undecimpunctata, Nephotettix cincticeps or Rhipicephalus sanguineus
Experiment: Pooled statement: active in one or more of the above tests (Methods A to E)
Format: in vivo
Settings: active = reaching the threshold of Method A, B, C, D or E; test not given per compound
Method: The following representative test procedures, using compounds of the invention, were conducted to determine the parasiticidal and pesticidal activity of compounds of the invention.
A test container was filled with 10 adults of Ctenocephalides felis. A glass cylinder was closed on one end with parafilm and placed on top of the test container. The test compound solution was then pipetted into bovine blood and added to the glass cylinder. The treated Ctenocephalides felis were held in this artificial dog test (blood 37° C., 40-60% relative humidity; Ctenocephalides felis 20-22° C., 40-60% relative humidity) and assessment performed at 24 and 48 hours after application. Active compounds gave at least 90% control of Ctenocephalides felis at a test concentration of 5 ppm or less.
Two days before application, seeds of maize were soaked in water under warm conditions to elicit fast germination. One day before application, eggs of Diabrotica undecimpunctata were transferred to one half of a Japanese filter paper placed in a plastic petri dish. Afterwards, a sprouted maize seed was placed on a moistened pad beside the filter paper. Three drops of 200 microliters of test compound solution were carefully pipetted onto the egg. The remainder of the solution was placed on the maize and then the Petri dish was closed. The treated eggs in the Petri dishes were held in a climate chamber for 6 days. The compound efficacy (percentage of dead eggs and/or larvae in comparison to untreated control) was assessed 6 days after application using a binocular microscope.
Active compounds gave at least 90% control of Diabrotica undecimpunctata at a test concentration of 10 ppm.
The leaves of 12 rice plants having a stem length of 8 cm were dipped for 5 seconds into an aqueous solution of the formulated test compound. After the solution had run off, the rice plants treated in this manner were placed in a Petri dish and populated with about 20 larvae (L3 stage) of Nephotettix cincticeps. The Petri dish was closed and then stored in a climate chamber (16 hours of light/day, 25° C., 40-60% relative humidity). After 6 days storage, the percentage mortality of leafhopper larvae was determined.
Active compounds gave at least 98% mortality of Nephotettix cinciceps larvae at a test concentration of 100 ppm.
Solutions of the test compounds were dropped onto filter paper, dried and the filter paper placed into test tubes and infested with 10 adults of Ctenocephalides felis. The treated Ctenocephalides felis were held in a climate chamber (26° C., 80% RH) and the percentage efficacy assessed 24 hours and 48 hours after application in comparison with the untreated control.
Active compounds gave at least 70% contact control of Ctenocephalides felis at a test concentration of 1000 ppm.
Solutions of the test compounds were dropped onto filter paper, dried and the filter paper placed into test tubes and infested with 20-30 larvae (L1) of Rhipicephalus sanguineus and the tubes closed with a clip. The treated Rhipicephalus sanguineus were held in a climate chamber (25° C., 90% RH) and the percentage efficacy assessed 24 hours after application in comparison with the untreated control. Active compounds gave at least 70% contact control of Rhipicephalus sanguineus at a test concentration of 100 ppm.

SMILES | active in one or more of the above tests
CCCCS(=O)(=O)N(C)c1c(S(=O)(=O)C(F)(F)F)c(C#N)nn1-c1c(Cl)cc(C(F)(F)F)cc1Cl [Compound 1-120] | active
CN(c1c(SC(F)(F)F)c(C#N)nn1-c1c(Cl)cc(C(F)(F)F)cc1Cl)S(=O)(=O)Cc1ccc(Cl)cc1 [Compound 2-45] | active
CCCCCCCCCS(=O)(=O)N(C)c1c(SC(F)(F)F)c(C#N)nn1-c1c(Cl)cc(C(F)(F)F)cc1Cl [Compound 1-124] | active
CN(c1c([S+]([O-])C(F)(F)F)c(C#N)nn1-c1c(Cl)cc(C(F)(F)F)cc1Cl)S(=O)(=O)c1ccc(F)cc1 (stereo not shown) [Compound 5-54] | active
CS(=O)(=O)[N-]c1c(SC(F)(F)F)c(C#N)nn1-c1c(Cl)cc(C(F)(F)F)cc1Cl.[Na+] [Compound 1-116] | active
CN(c1c(SC(F)(F)F)c(C#N)nn1-c1c(Cl)cc(C(F)(F)F)cc1Cl)S(=O)(=O)Cc1ccccc1 [Compound 2-2] | active
CCCCCCCCCCS(=O)(=O)N(C)c1c(SC(F)(F)F)c(C#N)nn1-c1c(Cl)cc(C(F)(F)F)cc1Cl [Compound 1-125] | active
Cc1cc(C)c(S(=O)(=O)N(C)c2c(SC(F)(F)F)c(C#N)nn2-c2c(Cl)cc(C(F)(F)F)cc2Cl)c(C)c1 [Compound 5-40] | active
CN(c1c([S+]([O-])C(F)(F)F)c(C#N)nn1-c1c(Cl)cc(C(F)(F)F)cc1Cl)S(=O)(=O)C(Cl)(Cl)Cl (stereo not shown) [Compound 1-118] | active
Cc1ccc(S(=O)(=O)N(C)c2c([S+]([O-])C(F)(F)F)c(C#N)nn2-c2c(Cl)cc(C(F)(F)F)cc2Cl)cc1 (stereo not shown) [Compound 5-77] | active
CN(c1c(S(=O)(=O)C(F)(F)F)c(C#N)nn1-c1c(Cl)cc(C(F)(F)F)cc1Cl)S(=O)(=O)Cc1cccc(C(F)(F)F)c1 [Compound 2-127] | active
CN(c1c([S+]([O-])C(F)(F)F)c(C#N)nn1-c1c(Cl)cc(C(F)(F)F)cc1Cl)S(=O)(=O)Cc1ccc(Cl)s1 (stereo not shown) [Compound 4-35] | active
CN(c1c([S+]([O-])C(F)(F)F)c(C#N)nn1-c1c(Cl)cc(C(F)(F)F)cc1Cl)S(=O)(=O)C(F)(F)F (stereo not shown) [Compound 1-90] | active
CN(c1c([S+]([O-])C(F)(F)F)c(C#N)nn1-c1c(Cl)cc(C(F)(F)F)cc1Cl)S(=O)(=O)c1ccc(-c2ccc(Cl)c(Cl)c2)cc1 (stereo not shown) [Compound 5-150] | active
Cc1ccc(CS(=O)(=O)N(C)c2c(SC(F)(F)F)c(C#N)nn2-c2c(Cl)cc(C(F)(F)F)cc2Cl)cc1 [Compound 2-74] | active
Cc1cccc(S(=O)(=O)N(C)c2c(SC(F)(F)F)c(C#N)nn2-c2c(Cl)cc(C(F)(F)F)cc2Cl)c1 [Compound 5-30] | active
Cc1ccc(CS(=O)(=O)N(C)c2c([S+]([O-])C(F)(F)F)c(C#N)nn2-c2c(Cl)cc(C(F)(F)F)cc2Cl)cc1 (stereo not shown) [Compound 2-109] | active
CN(c1c([S+]([O-])C(F)(F)F)c(C#N)nn1-c1c(Cl)cc(C(F)(F)F)cc1Cl)S(=O)(=O)c1ccc(C(F)(F)F)cc1 (stereo not shown) [Compound 5-61] | active
CCS(=O)(=O)Nc1c([S+]([O-])C(F)(F)F)c(C#N)nn1-c1c(Cl)cc(C(F)(F)F)cc1Cl (stereo not shown) [Compound 1-117] | active
CN(c1c(SC(F)(F)F)c(C#N)nn1-c1c(Cl)cc(C(F)(F)F)cc1Cl)S(=O)(=O)c1ccccc1 [Compound 5-36] | active
CN(c1c([S+]([O-])C(F)(F)F)c(C#N)nn1-c1c(Cl)cc(C(F)(F)F)cc1Cl)S(=O)(=O)c1cc(Cl)cc(Cl)c1 (stereo not shown) [Compound 5-87] | active
CN(c1c([S+]([O-])C(F)(F)F)c(C#N)nn1-c1c(Cl)cc(C(F)(F)F)cc1Cl)S(C)(=O)=O (stereo not shown) [Compound 1-16] | active

SMILES | active in one or more of the above tests
CN(c1c([S+]([O-])C(F)(F)F)c(C#N)nn1-c1c(Cl)cc(C(F)(F)F)cc1Cl)S(=O)(=O)Cc1cc(Cl)cc(Cl)c1 (stereo not shown) [Compound 2-150] | active
Cc1ccc(CS(=O)(=O)N(C)c2c(S(=O)(=O)C(F)(F)F)c(C#N)nn2-c2c(Cl)cc(C(F)(F)F)cc2Cl)cc1 [Compound 2-144] | active
CN(c1c(SC(F)(F)F)c(C#N)nn1-c1c(Cl)cc(C(F)(F)F)cc1Cl)S(=O)(=O)c1ccc(C(C)(C)C)cc1 [Compound 5-38] | active
CN(c1c(SC(F)(F)F)c(C#N)nn1-c1c(Cl)cc(C(F)(F)F)cc1Cl)S(=O)(=O)c1ccc(F)cc1 [Compound 5-9] | active
CCCCCCCCCCS(=O)(=O)N(C)c1c([S+]([O-])C(F)(F)F)c(C#N)nn1-c1c(Cl)cc(C(F)(F)F)cc1Cl (stereo not shown) [Compound 1-95] | active
Cc1cccc(S(=O)(=O)N(C)c2c([S+]([O-])C(F)(F)F)c(C#N)nn2-c2c(Cl)cc(C(F)(F)F)cc2Cl)c1 (stereo not shown) [Compound 5-75] | active
C=CS(=O)(=O)N(C)c1c([S+]([O-])C(F)(F)F)c(C#N)nn1-c1c(Cl)cc(C(F)(F)F)cc1Cl (stereo not shown) [Compound 1-97] | active
CN(c1c([S+]([O-])C(F)(F)F)c(C#N)nn1-c1c(Cl)cc(C(F)(F)F)cc1Cl)S(=O)(=O)c1cccc2ccccc12 (stereo not shown) [Compound 5-89] | active
CN(c1c([S+]([O-])C(F)(F)F)c(C#N)nn1-c1c(Cl)cc(C(F)(F)F)cc1Cl)S(=O)(=O)Cc1cc(C(F)(F)F)cc(C(F)(F)F)c1 (stereo not shown) [Compound 2-94] | active
CN(c1c(S(=O)(=O)C(F)(F)F)c(C#N)nn1-c1c(Cl)cc(C(F)(F)F)cc1Cl)S(=O)(=O)Cc1ccc(F)cc1 [Compound 2-121] | active
CN(c1c(S(=O)(=O)C(F)(F)F)c(C#N)nn1-c1c(Cl)cc(C(F)(F)F)cc1Cl)S(=O)(=O)C=Cc1ccccc1 [Compound 1-115] | active
CN(c1c(SC(F)(F)F)c(C#N)nn1-c1c(Cl)cc(C(F)(F)F)cc1Cl)S(=O)(=O)Cc1ccc(Cl)s1 [Compound 4-32] | active
CN(c1c(SC(F)(F)F)c(C#N)nn1-c1c(Cl)cc(C(F)(F)F)cc1Cl)S(=O)(=O)Cc1cc(Cl)cc(Cl)c1 [Compound 2-149] | active
CCCCCc1ccc(CS(=O)(=O)N(C)c2c(SC(F)(F)F)c(C#N)nn2-c2c(Cl)cc(C(F)(F)F)cc2Cl)cc1 [Compound 2-148] | active
CN(c1c(SC(F)(F)F)c(C#N)nn1-c1c(Cl)cc(C(F)(F)F)cc1Cl)S(=O)(=O)c1cc(Cl)cc(Cl)c1 [Compound 5-42] | active
CN(c1c([S+]([O-])C(F)(F)F)c(C#N)nn1-c1c(Cl)cc(C(F)(F)F)cc1Cl)S(=O)(=O)Cc1ccc(Cl)cc1 (stereo not shown) [Compound 2-80] | active
CN(c1c(S(=O)(=O)C(F)(F)F)c(C#N)nn1-c1c(Cl)cc(C(F)(F)F)cc1Cl)S(=O)(=O)Cc1cccs1 [Compound 4-34] | active
COC(=O)c1ccc(I)cc1S(=O)(=O)N(C)c1c([S+]([O-])C(F)(F)F)c(C#N)nn1-c1c(Cl)cc(C(F)(F)F)cc1Cl (stereo not shown) [Compound 5-86] | active
CN(c1c(S(=O)(=O)C(F)(F)F)c(C#N)nn1-c1c(Cl)cc(C(F)(F)F)cc1Cl)S(=O)(=O)CCCCl [Compound 1-121, 1-(2,6-Dichloro-4-trifluoromethylphenyl)-5-[N-(3-chloropropylsulfonyl)-N-methylamino]-3-cyano-4-trifluoromethylsulfonylpyrazole] | active
CCCCCCCCS(=O)(=O)N(C)c1c([S+]([O-])C(F)(F)F)c(C#N)nn1-c1c(Cl)cc(C(F)(F)F)cc1Cl (stereo not shown) [Compound 1-123] | active
CN(c1c(SC(F)(F)F)c(C#N)nn1-c1c(Cl)cc(C(F)(F)F)cc1Cl)S(=O)(=O)Cc1ccc(F)cc1 [Compound 2-51] | active
